In PubChem BioAssay (NCI):
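Following 48 hours of exposure in 96-well plates, responses at five concentrations were used to interpolate endpoints linearly. GI50 = concentration required for 50% inhibition of growth. The concentration for full growth arrest is given as TGI.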

Experiments:
Assay in all cases: NCI tumour cell line growth inhibition, 48 h
[1] = test system: UO-31 renal
[2] = test system: M14 melanoma
[3] = test system: IGROV1 ovarian
[4] = test system: SK-OV-3 ovarian
[5] = test system: HCT-116 colon
[6] = test system: LOX IMVI melanoma
[7] = test system: EKVX NSCLC
[8] = test system: SK-MEL-5 melanoma
[9] = test system: OVCAR-8 ovarian
[10] = test system: SNB-78 CNS
[11] = test system: HT29 colon
[12] = test system: KM20L2 colon
[13] = test system: SNB-19 CNS
[14] = test system: RXF-631 renal
[15] = test system: SF-268 CNS
[16] = test system: HL-60(TB) leukemia
[17] = test system: M19-MEL melanoma
[18] = test system: SN12C renal
[19] = test system: HCT-15 colon
[20] = test system: DMS 273 small cell lung
[21] = test system: SF-539 CNS
[22] = test system: 786-0 renal
[23] = test system: UACC-62 melanoma
[24] = test system: COLO 205 colon
[25] = test system: DLD-1 colon
[26] = test system: TK-10 renal
[27] = test system: HCC-2998 colon
[28] = test system: HOP-62 NSCLC
[29] = test system: DMS 114 small cell lung
[30] = test system: SK-MEL-28 melanoma
[31] = test system: NCI-H23 lung
[32] = test system: XF 498 CNS
[33] = test system: SW-620 colon
[34] = test system: U251 CNS
[35] = test system: SF-295 CNS
[36] = test system: HOP-18 NSCLC
[37] = test system: NCI-H522 lung
[38] = test system: SK-MEL-2 melanoma
[39] = test system: OVCAR-5 ovarian
[40] = test system: KM12 colon
[41] = test system: SNB-75 CNS
[42] = test system: HOP-92 NSCLC
[43] = test system: SR leukemia
[44] = test system: ACHN renal
[45] = test system: OVCAR-3 ovarian
[46] = test system: RPMI-8226 leukemia
[47] = test system: NCI-H460 lung
[48] = test system: UACC-257 melanoma
[49] = test system: A549 NSCLC
[50] = test system: K-562 leukemia
[51] = test system: LXFL 529 NSCLC
[52] = test system: CAKI-1 renal
[53] = test system: RXF 393 renal
[54] = test system: MALME-3M melanoma
[55] = test system: CCRF-CEM leukemia
[56] = test system: A498 renal
[57] = test system: NCI-H226 lung
[58] = test system: OVCAR-4 ovarian
[59] = test system: MOLT-4 leukemia
[60] = test system: MDA-MB-231 breast
[61] = test system: DU-145 prostate
[62] = test system: NCI/ADR-RES ovarian
[63] = test system: MCF7 breast
[64] = test system: T-47D breast
[65] = test system: PC-3 prostate
[66] = test system: MDA-MB-435
[67] = test system: HS 578T breast

## COc1cc(C)c(C)c(OC(=O)c2c(C)c(C)c(OC)c(C)c2OC)c1C
[1]
  TGI: > 100 µM
[2]
  TGI: 33.9 µM
[3]
  TGI: > 100 µM
[4]
  TGI: 57.2 µM
[5]
  TGI: 39 µM
[6]
  TGI: 20.9 µM
[7]
  TGI: 98.3 µM
[8]
  TGI: 22.7 µM
[9]
  TGI: > 100 µM
[10]
  TGI: > 100 µM
[11]
  TGI: 23.5 µM
[12]
  TGI: 19.6 µM
[13]
  TGI: > 100 µM
[14]
  TGI: 69.1 µM
[15]
  TGI: 56.2 µM
[16]
  TGI: 32.6 µM
[17]
  TGI: 46.6 µM
[18]
  TGI: > 100 µM
[19]
  TGI: 18.5 µM
[20]
  TGI: 20.6 µM
[21]
  TGI: 38.6 µM
[22]
  TGI: 53.4 µM
[23]
  TGI: > 100 µM
[24]
  TGI: 15.7 µM
[25]
  TGI: > 100 µM
[26]
  TGI: > 100 µM
[27]
  TGI: 53.1 µM
[28]
  TGI: > 100 µM
[29]
  TGI: 15.5 µM
[30]
  TGI: > 100 µM
[31]
  TGI: 52.9 µM
[32]
  TGI: 40 µM
[33]
  TGI: 36 µM
[34]
  TGI: 21 µM
[35]
  TGI: 38.6 µM
[36]
  TGI: > 100 µM
[37]
  TGI: 4.71 µM
[38]
  TGI: 24.8 µM
[39]
  TGI: 91.4 µM
[40]
  TGI: 50.9 µM
[41]
  TGI: 36 µM
[42]
  TGI: 53.9 µM
[43]
  TGI: 22 µM
[44]
  TGI: > 100 µM
[45]
  TGI: 7.15 µM
[46]
  TGI: 81.5 µM
[47]
  TGI: 20.4 µM
[48]
  TGI: 78.6 µM
[49]
  TGI: 71.8 µM
[50]
  TGI: 44.7 µM
[51]
  TGI: > 100 µM
[52]
  TGI: 79.6 µM
[53]
  TGI: 39.7 µM
[54]
  TGI: 65.7 µM
[55]
  TGI: 62 µM
[56]
  TGI: 45.9 µM
[57]
  TGI: 72.1 µM
[58]
  TGI: > 100 µM
[59]
  TGI: 45.2 µM

## CC(CN1CCN(CC(C)Nc2ccnc3cc(Cl)ccc23)CC1)Nc1ccnc2cc(Cl)ccc12 (stereo not given)
[1]
  TGI: 30.7 µM
[2]
  TGI: 10.5 µM
[3]
  GI50: 9.37 µM
  TGI: > 100 µM
[4]
  TGI: 76.7 µM
[5]
  TGI: 12.9 µM
[6]
  TGI: 8.19 µM
[7]
  TGI: > 58.9 µM
[8]
  TGI: 23.5 µM
[9]
  TGI: > 64 µM
[60]
  GI50: 2720 nM
  TGI: 7.52 µM
[10]
  TGI: 38 µM
[11]
  TGI: > 53.8 µM
[12]
  TGI: 26.9 µM
[13]
  TGI: > 79.9 µM
[14]
  TGI: 25.3 µM
[15]
  TGI: > 36 µM
[16]
  TGI: 19.3 µM
[17]
  TGI: 41.4 µM
[61]
  GI50: 7.83 µM
  TGI: > 100 µM
[18]
  TGI: > 71.6 µM
[19]
  TGI: 19.6 µM
[62]
  GI50: 83.6 µM
  TGI: > 100 µM
[20]
  TGI: 29.8 µM
[21]
  TGI: 10.4 µM
[22]
  TGI: 33.8 µM
[23]
  TGI: 32.5 µM
[24]
  TGI: 31.8 µM
[25]
  TGI: 41.1 µM
[26]
  TGI: 49.2 µM
[27]
  TGI: 50.2 µM
[28]
  TGI: > 63 µM
[29]
  TGI: 41 µM
[30]
  TGI: 10.4 µM
[63]
  GI50: 8.29 µM
  TGI: > 100 µM
[31]
  TGI: > 57 µM
[32]
  TGI: 37.9 µM
[33]
  GI50: 2820 nM
  TGI: > 100 µM
[34]
  TGI: 42.2 µM
[35]
  TGI: 51.2 µM
[37]
  TGI: 21.3 µM
[38]
  GI50: 25.8 µM
  TGI: 62.7 µM
[39]
  TGI: > 68.6 µM
[40]
  TGI: > 51.8 µM
[41]
  TGI: 18.3 µM
[42]
  GI50: 1590 nM
  TGI: 13.2 µM
[64]
  GI50: 35.2 µM
  TGI: 74.6 µM
[43]
  TGI: 7.45 µM
[44]
  TGI: 64.6 µM
[45]
  TGI: > 64.4 µM
[46]
  TGI: > 20.1 µM
[47]
  TGI: 14.3 µM
[48]
  TGI: 29.5 µM
[49]
  TGI: > 57 µM
[50]
  TGI: > 100 µM
[51]
  TGI: 30.7 µM
[65]
  GI50: 3.04 µM
  TGI: 57.2 µM
[52]
  TGI: > 100 µM
[53]
  TGI: 14.7 µM
[54]
  TGI: 26.5 µM
[55]
  TGI: > 100 µM
[56]
  TGI: > 56.8 µM
[66]
  GI50: 2740 nM
  TGI: 9.38 µM
[57]
  TGI: > 69.5 µM
[67]
  GI50: 2550 nM
  TGI: 9.69 µM
[58]
  TGI: > 61.6 µM
[59]
  TGI: > 100 µM

## Cc1ccc(NC(=O)C2C(=O)N(c3ccc(C)c(C)c3)C(=O)/C2=N\NC(N)=S)cc1C (stereo not given)
[1]
  TGI: > 100 µM
[2]
  TGI: > 100 µM
[3]
  TGI: > 100 µM
[4]
  TGI: > 100 µM
[5]
  TGI: > 100 µM
[6]
  TGI: > 100 µM
[7]
  TGI: > 100 µM
[10]
  TGI: > 100 µM
[11]
  TGI: > 100 µM
[12]
  TGI: > 100 µM
[13]
  TGI: > 100 µM
[14]
  TGI: > 100 µM
[15]
  TGI: > 100 µM
[16]
  TGI: > 100 µM
[17]
  TGI: > 100 µM
[18]
  TGI: > 100 µM
[19]
  TGI: > 100 µM
[20]
  TGI: > 100 µM
[21]
  TGI: > 100 µM
[22]
  TGI: > 100 µM
[23]
  TGI: > 100 µM
[25]
  TGI: > 100 µM
[26]
  TGI: > 100 µM
[30]
  TGI: > 100 µM
[31]
  TGI: > 100 µM
[32]
  TGI: > 100 µM
[33]
  TGI: > 100 µM
[34]
  TGI: > 100 µM
[35]
  TGI: > 100 µM
[37]
  TGI: > 100 µM
[38]
  TGI: > 100 µM
[40]
  TGI: > 100 µM
[41]
  TGI: > 100 µM
[42]
  TGI: > 100 µM
[43]
  TGI: > 100 µM
[44]
  TGI: > 100 µM
[45]
  TGI: > 100 µM
[46]
  TGI: > 100 µM
[48]
  TGI: > 100 µM
[49]
  TGI: > 100 µM
[50]
  TGI: > 100 µM
[51]
  TGI: > 100 µM
[52]
  TGI: > 100 µM
[54]
  TGI: > 100 µM
[55]
  TGI: > 100 µM
[57]
  TGI: > 100 µM
[59]
  TGI: > 100 µM

## Cc1ccccc1NC(=O)CC(=O)N1N=C(N2c3ccccc3Sc3ccccc32)CC1c1ccccc1 (stereo not given)
[1]
  TGI: > 100 µM
[2]
  TGI: > 100 µM
[3]
  TGI: > 100 µM
[4]
  TGI: > 100 µM
[5]
  TGI: > 100 µM
[6]
  TGI: > 100 µM
[7]
  TGI: > 100 µM
[8]
  TGI: > 100 µM
[9]
  TGI: > 100 µM
[10]
  TGI: > 100 µM
[11]
  TGI: > 100 µM
[12]
  TGI: > 100 µM
[13]
  TGI: > 100 µM
[14]
  TGI: > 100 µM
[15]
  TGI: > 100 µM
[17]
  TGI: > 100 µM
[18]
  TGI: > 100 µM
[19]
  TGI: > 100 µM
[20]
  TGI: > 100 µM
[21]
  TGI: > 100 µM
[23]
  TGI: > 100 µM
[24]
  TGI: > 100 µM
[25]
  TGI: > 100 µM
[26]
  TGI: > 100 µM
[27]
  TGI: > 100 µM
[28]
  TGI: > 100 µM
[29]
  TGI: > 100 µM
[30]
  TGI: > 100 µM
[31]
  TGI: > 100 µM
[32]
  TGI: > 100 µM
[33]
  TGI: > 100 µM
[34]
  TGI: > 100 µM
[35]
  TGI: > 100 µM
[39]
  TGI: > 100 µM
[40]
  TGI: > 100 µM
[41]
  TGI: > 100 µM
[42]
  TGI: > 100 µM
[43]
  TGI: > 100 µM
[44]
  TGI: > 100 µM
[45]
  TGI: > 100 µM
[46]
  TGI: > 100 µM
[47]
  TGI: > 100 µM
[48]
  TGI: > 100 µM
[49]
  TGI: > 100 µM
[51]
  TGI: > 100 µM
[52]
  TGI: > 100 µM
[54]
  TGI: > 100 µM
[56]
  TGI: > 100 µM
[57]
  TGI: > 100 µM
[58]
  TGI: > 100 µM
[59]
  TGI: > 100 µM
